Laboratory results taken from publication PMC8443589, “Modelling human liver fibrosis in the context of non-alcoholic steatohepatitis using a microphysiological system” (Communications Biology, 2021).

Tested on: liver MPS NASH model (PHH, KC and HSC co-cultures, high fat)
Experiment: Secreted cytokine/biomarker profile (Luminex, ELISA) of liver MPS NASH model dosed with OCA or ELF
Type: cell-based, human
Method: Fig. 3 Obeticholic acid and Elafibranor both modulate inflammatory and fibrosis phenotype in liver MPS NASH model and phenotype can additionally be reversed with dietary changes. PHH, KC and HSC co-cultures were cultured in the MPS platform under high fat conditions and dosed with varying concentrations of Obeticholic acid (OCA) and Elafibranor (ELF) QD or vehicle control (control) for 10 days, following an initial 4-day pre-culture phase. a The secreted cytokine profile from liver microtissues was compared by Luminex to determine the effects of each compound on the inflammatory profile of the liver with samples analysed at day 8 and 14 of the culture. Data were normalised by Z-transformation to allow comparison of all analytes and presented as a heatmap. b The expression of fibrosis-associated genes was analysed in total RNA from control, OCA and ELF treated liver microtissues (highest concentration for each compound) using Human Fibrosis RT2 Profiler PCR Arrays. Gene expression changes are expressed as a fold change over control. c Liver microtissues were stained for collagen-type I, α-SMA, nuclei (DAPI - blue), phalloidin (green) and imaged by confocal microscopy. Representative images are shown and scale bars 200 µm. d Staining of microtissue was quantified by measuring total fluorescence intensity throughout individual microtissues, each data point represents an average of all the microtissues imaged within an MPS scaffold (min 8, max 20 microtissues). e PHH, KC and HSC co-cultures were cultured in the MPS platform under high fat or lean conditions for 30 days. Cultures either remained in the same type of media throughout or were switched at day 15 from fat media to lean media (Fat -> Lean). Cell culture medium samples were analysed for the presence of IL-6, f MCP-1, g TIMP-1, which were measured by ELISA. h Microtissues were stained with Oil-Red O to determine fat loading during culture period, total stain was quantified by absorbance at 510 nm. All datapoints shown, either as box-whisker plots highlighting mean and min-max or with error bars highlighting means ± SD. All data from a minimum of three independent cultures; statistical comparisons made to control samples unless other comparison shown.
Soluble biomarkers in cell culture medium from the MPS were analysed by enzyme-linked immunosorbent assay (ELISA); IL-6 was measured by Human IL-6 DuoSet ELISA (R&D Systems); MCP-1 was measured by Human CCL2/MCP-1 DuoSet ELISA (R&D Systems); pro-collagen 1 was measured by Human Pro-Collagen I α1 DuoSet (R&D Systems); TIMP-1 was measured by Human TIMP-1 Quantikine ELISA Kit (R&D Systems); Fibronectin was measured by Human Fibronectin DuoSet ELISA (R&D Systems); YKL-40 was measured by Human Chitinase 3-like 1 Quantikine ELISA Kit (R&D Systems); Albumin secretion was measured by Human Albumin AssayMax™ ELISA kit (Assay Pro, St. Charles, MO). For all assays, the manufacturer’s protocol was followed.
Cytokine profiles in cell culture medium samples were also analysed by Luminex array for determination of 38 analytes in total, consisting of cytokines, chemokines, and growth factors using the MILLIPLEX MAP Human Cytokine/Chemokine Magnetic Bead Panel - Premixed 38 Plex (Merck Millipore, USA).
Liver microtissues were cultured for 4 days in HEP-FAT medium, before dosing with obeticholic acid or elafibranor. Both compounds were dissolved in DMSO, diluted in cell culture medium (final DMSO concentration ≤1%) and added to microtissues during a full medium change every two days and in addition on the intervening days compounds were spiked into the media to increase drug concentration back to desired concentrations. Cultures were maintained in the presence of the compound, for a total of 10 days in the presence or absence of TGFβ.

## CSc1ccc(C(=O)/C=C/c2cc(C)c(OC(C)(C)C(=O)O)c(C)c2)cc1 [Elafibranor]
10 days of compound treatment
  inflammatory cytokines, including CXCL1, IL1-Rα, IL-6 and MCP-1: concentration-dependent decrease
ELF 1.3 µM QD, D8
  CXCL1 fold change in production compared to control: 0.8888
  CXCL10 fold change in production compared to control: 0.9847
  FN1 fold change in production compared to control: 0.9865
  IL-1RA fold change in production compared to control: 0.559
  IL-4 fold change in production compared to control: 1.264
  IL-6 fold change in production compared to control: 0.3707
  IL-8 fold change in production compared to control: 1.017
  MCP-1 fold change in production compared to control: 1.109
  MIP-1a fold change in production compared to control: 0.8137
  MIP-1b fold change in production compared to control: 0.885
  TIMP-1 fold change in production compared to control: 0.8634
  VEGF fold change in production compared to control: 0.3678
ELF 1.3 µM QD, D14
  CXCL1 fold change in production compared to control: 0.5791
  CXCL10 fold change in production compared to control: 0.6755
  FN1 fold change in production compared to control: 1.109
  IL-1RA fold change in production compared to control: 0.3482
  IL-4 fold change in production compared to control: 0.8813
  IL-6 fold change in production compared to control: 0.3647
  IL-8 fold change in production compared to control: 0.625
  MCP-1 fold change in production compared to control: 0.9408
  MIP-1a fold change in production compared to control: 0.8725
  MIP-1b fold change in production compared to control: 1.297
  TIMP-1 fold change in production compared to control: 0.9244
  VEGF fold change in production compared to control: 0.5658
ELF 13 µM QD, D8
  CXCL1 fold change in production compared to control: 0.7659
  CXCL10 fold change in production compared to control: 0.8228
  FN1 fold change in production compared to control: 0.9502
  IL-1RA fold change in production compared to control: 0.4867
  IL-4 fold change in production compared to control: 1.05
  IL-6 fold change in production compared to control: 0.3808
  IL-8 fold change in production compared to control: 0.9446
  MCP-1 fold change in production compared to control: 0.8534
  MIP-1a fold change in production compared to control: 0.3878
  MIP-1b fold change in production compared to control: 0.4913
  TIMP-1 fold change in production compared to control: 0.6879
  VEGF fold change in production compared to control: 0.494
ELF 13 µM QD, D14
  CXCL1 fold change in production compared to control: 0.5325
  CXCL10 fold change in production compared to control: 0.6314
  FN1 fold change in production compared to control: 0.9442
  IL-1RA fold change in production compared to control: 0.3167
  IL-4 fold change in production compared to control: 1.0405
  IL-6 fold change in production compared to control: 0.4596
  IL-8 fold change in production compared to control: 0.6408
  MCP-1 fold change in production compared to control: 0.5
  MIP-1a fold change in production compared to control: 0.4932
  MIP-1b fold change in production compared to control: 0.6533
  TIMP-1 fold change in production compared to control: 0.6384
  VEGF fold change in production compared to control: 1.282
ELF 65 µM QD, D8
  CXCL1 fold change in production compared to control: 0.4476
  CXCL10 fold change in production compared to control: 0.3212
  FN1 fold change in production compared to control: 0.8989
  IL-1RA fold change in production compared to control: 0.1707
  IL-4 fold change in production compared to control: 0.5412
  IL-6 fold change in production compared to control: 0.2914
  IL-8 fold change in production compared to control: 0.5667
  MCP-1 fold change in production compared to control: 0.402
  MIP-1a fold change in production compared to control: 0.2899
  MIP-1b fold change in production compared to control: 0.5458
  TIMP-1 fold change in production compared to control: 0.784
  VEGF fold change in production compared to control: 0.6076
ELF 65 µM QD, D14
  CXCL1 fold change in production compared to control: 0.3166
  CXCL10 fold change in production compared to control: 0.3403
  FN1 fold change in production compared to control: 0.7375
  IL-1RA fold change in production compared to control: 0.07012
  IL-4 fold change in production compared to control: 0.3173
  IL-6 fold change in production compared to control: 0.09996
  IL-8 fold change in production compared to control: 0.4914
  MCP-1 fold change in production compared to control: 0.1355
  MIP-1a fold change in production compared to control: 0.3265
  MIP-1b fold change in production compared to control: 0.1355
  TIMP-1 fold change in production compared to control: 0.5288
  VEGF fold change in production compared to control: 1.5699
